Laboratory results from US20100261694A1 (priority 2009, published 2010).
Like-named read-outs stand apart in the source and are kept apart here.

Tests used:
[1] = tested on: Physcomitrella patens gametophore cells; format: cell-based; settings: for Tunicamycin induced cell death: moss, co-treatment 100 μM chaperone with 10 μg/ml tunicamycin, 72h
Fusarium graminearum = format: in vivo; settings: 100 μM chaperone; 10 days postinoculation
F. graminearum [2] = format: in vivo, Fusarium graminearum; settings: 100 μM chaperone; for Proliferation of F. graminearum on host tissue (GFP-tagged fungal cells, PCR): moss tissues; for Cell death markers (chlorosis, TUNEL-positive nuclei, Evans Blue staining, ROS induction) by the fungal pathogen: moss
F. graminearum [3] = format: cell-based, Fusarium graminearum; settings: 100 μM; rich solid medium, no host
F. graminearum [4] = format: in vivo, Fusarium graminearum; settings: 100 μM chaperone; for Proliferation of F. graminearum on host tissue (GFP-tagged fungal cells, PCR): wheat tissues; for Cell death markers (chlorosis, TUNEL-positive nuclei, Evans Blue staining, ROS induction) by the fungal pathogen: wheat
[5] = tested on: Triticum aestivum leaf segments; format: cell-based; settings: for Tunicamycin induced cell death: wheat, co-treatment 100 μM chaperone with 10 μg/ml tunicamycin, 72h

Row | Compound | Tunicamycin induced cell death [1] | Fungal growth on inoculated wheat seeds (Fusarium graminearum) | Proliferation of F. graminearum on host tissue (GFP-tagged fungal cells, PCR) (F. graminearum [2]) | Cell death markers (chlorosis, TUNEL-positive nuclei, Evans Blue staining, ROS induction) by the fungal pathogen (F. graminearum [2]) | Fungal growth and reproduction on solid growth medium (F. graminearum [3]) | Proliferation of F. graminearum on host tissue (GFP-tagged fungal cells, PCR) (F. graminearum [4]) | Cell death markers (chlorosis, TUNEL-positive nuclei, Evans Blue staining, ROS induction) by the fungal pathogen (F. graminearum [4]) | Tunicamycin induced cell death [5] | Cell death (Evans Blue staining) compared to untreated control [1] | Cell death (Evans Blue staining) compared to untreated control [5]
1 | O=C(O)CCCc1ccccc1 [PBA, 4-phenylbutyric acid] | attenuated | suppression of fungal growth | significantly suppress | attenuated | did not affect fungal growth and reproduction | significantly suppress | attenuated | attenuated |  | 
2 | C[C@H](CCC(=O)NCCS(=O)(=O)O)[C@H]1CC[C@H]2[C@@H]3[C@@H](O)C[C@@H]4C[C@H](O)CC[C@]4(C)[C@H]3CC[C@]12C [TUDCA, tauroursodeoxycholic acid] | attenuated | suppression of fungal growth | significantly suppress | attenuated | did not affect fungal growth and reproduction | significantly suppress | attenuated | attenuated |  | 
3 | Tunicamycin |  |  |  |  |  |  |  |  | more cell death | more cell death
